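Five compound concentrations were applied to cells in 96-well plates for 48 hours; endpoints were derived by simple linear interpolation of the resulting dose-response curve. GI50 marks 50% less growth. At the TGI there is no net growth.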

Some test systems named below: LOX IMVI melanoma; OVCAR-4 ovarian; U251 CNS; SNB-19 CNS; EKVX NSCLC; NCI-H226 lung; HCT-15 colon; ACHN renal.
Test in all cases: NCI anticancer screen, dose series, 48 h

Regarding `CCC1CCC2C3CC=C4CC(OC(C)=O)C(N)CC4(C)C3CCC12C` (stereo not drawn), the TGI with LOX IMVI melanoma stood at 4.12 µM; with OVCAR-4 ovarian, 18 µM; in the experiment with U251 CNS, 3.68 µM; with SNB-19 CNS it was 6.49 µM; in the experiment on EKVX NSCLC, 13.8 µM; in the experiment on NCI-H226 lung, 39.7 µM. The TGI in the experiment on HCT-15 colon stood at 12.5 µM; in the experiment with ACHN renal it was 17.6 µM.
Turning to `Cc1ccc(C(=O)Nc2ccc(CN3CCN(C)CC3)c(C(F)(F)F)c2)cc1C#Cc1cnc(N)c2ccc(C#N)cc12`, the GI50 was 41.9 nM with LOX IMVI melanoma; 375 nM in the experiment with OVCAR-4 ovarian; 393 nM with U251 CNS; 3.2 µM in the experiment on SNB-19 CNS; 9.46 µM in the experiment on EKVX NSCLC; 471 nM in the experiment with NCI-H226 lung. Further, the results for the GI50 with HCT-15 colon and with ACHN renal were 55.8 nM and 18.2 nM, respectively. The TGI in the experiment with LOX IMVI melanoma is 6.79 µM; in the experiment on OVCAR-4 ovarian it was 11.8 µM; with U251 CNS it was 9.23 µM; in the experiment with SNB-19 CNS, 19.9 µM; with EKVX NSCLC, more than 50 µM; with NCI-H226 lung it was more than 50 µM. Further, the TGI was determined as 8.77 µM with HCT-15 colon and 6.23 µM with ACHN renal.
In the case of `COc1ccc(-c2c(-c3cc4c(c(OC)c3OC)OCO4)noc2N)cc1`, the GI50 in the experiment on LOX IMVI melanoma is 480 nM; in the experiment on OVCAR-4 ovarian, 671 nM; in the experiment with U251 CNS it was 417 nM; in the experiment on SNB-19 CNS, 0.661 µM; in the experiment with EKVX NSCLC it was 4.12 µM; with NCI-H226 lung, 804 nM. Further, the values for the GI50 in the experiment with HCT-15 colon and in the experiment with ACHN renal were 391 nM and 1430 nM, respectively. Besides, the TGI in the experiment on LOX IMVI melanoma, with OVCAR-4 ovarian, in the experiment with U251 CNS, in the experiment with SNB-19 CNS, with EKVX NSCLC and with NCI-H226 lung was more than 100 µM in each case. For the same compound, the TGI in the experiment on HCT-15 colon and in the experiment on ACHN renal was more than 100 µM in each case.
Take `CC[C@]12C=CCN3CC[C@@]4(c5ccc(OC)cc5N(C)[C@H]4[C@@](O)(C(=O)OC)[C@@H]1OC(=O)CCCC[P+](c1ccccc1)(c1ccccc1)c1ccccc1)[C@@H]32`: the GI50 is 1110 nM in the experiment with LOX IMVI melanoma; 342 nM in the experiment on OVCAR-4 ovarian; 441 nM in the experiment with U251 CNS; 0.384 µM with SNB-19 CNS; 0.907 µM in the experiment with EKVX NSCLC; 2120 nM with NCI-H226 lung. The figures for the GI50 in the experiment on HCT-15 colon and with ACHN renal were 19400 nM and 14000 nM, respectively. For the same compound, the TGI in the experiment with LOX IMVI melanoma was 9.03 µM; in the experiment with OVCAR-4 ovarian, 10.8 µM; in the experiment with U251 CNS, 4.4 µM; in the experiment on SNB-19 CNS, 2.92 µM; with EKVX NSCLC it was 15.8 µM; in the experiment with NCI-H226 lung, 9.74 µM. The values for the TGI with HCT-15 colon and with ACHN renal were 43.6 µM and 30.1 µM, respectively.
Regarding `Cc1cc(C)nc(NS(=O)(=O)c2ccc(Nc3nc4nc(NCc5ccccc5)nc(-c5ccc(O)cc5)c4c(=O)[nH]3)cc2)n1`, the GI50 in the experiment on LOX IMVI melanoma is 25200 nM; in the experiment with OVCAR-4 ovarian, 32100 nM; in the experiment with U251 CNS, 36700 nM; in the experiment on SNB-19 CNS, 27.4 µM; in the experiment on EKVX NSCLC, 35.1 µM; with NCI-H226 lung, 55800 nM. For the same compound, the values for the GI50 in the experiment with HCT-15 colon and with ACHN renal were 32400 nM and 29600 nM, respectively. The TGI with LOX IMVI melanoma, with OVCAR-4 ovarian, in the experiment with U251 CNS, in the experiment on SNB-19 CNS, in the experiment on EKVX NSCLC and in the experiment on NCI-H226 lung was more than 100 µM throughout. In addition, the TGI in the experiment with HCT-15 colon and with ACHN renal was more than 100 µM in each case.
Turning to `COc1ccc(/C=C(/C(=O)N2CCN(c3ccc(C)cc3)CC2)c2cc(OC)c(OC)c(OC)c2)cc1N`, the GI50 in the experiment with LOX IMVI melanoma is 221 nM; in the experiment on OVCAR-4 ovarian it was 3210 nM; with U251 CNS it was 397 nM; in the experiment on SNB-19 CNS, 0.426 µM; with EKVX NSCLC, 0.628 µM; in the experiment on NCI-H226 lung it was 352 nM. Besides, the figures for the GI50 in the experiment with HCT-15 colon and with ACHN renal were 337 nM and 203 nM, respectively. In addition, the TGI in the experiment with LOX IMVI melanoma, in the experiment with OVCAR-4 ovarian, in the experiment with U251 CNS, with SNB-19 CNS, in the experiment with EKVX NSCLC and in the experiment on NCI-H226 lung was more than 100 µM in each case. The TGI in the experiment with HCT-15 colon and with ACHN renal was more than 100 µM throughout.
As to `N=C(N)c1ccc(CS(=O)(=O)F)cc1`, the GI50 is 81200 nM in the experiment with LOX IMVI melanoma; more than 100000 nM in the experiment on OVCAR-4 ovarian; more than 100000 nM in the experiment with U251 CNS; more than 100 µM with SNB-19 CNS; more than 100 µM with EKVX NSCLC; more than 100000 nM in the experiment on NCI-H226 lung. The GI50 with HCT-15 colon and with ACHN renal was more than 100000 nM each time. Further, the TGI with LOX IMVI melanoma, in the experiment on OVCAR-4 ovarian, with U251 CNS, in the experiment on SNB-19 CNS, in the experiment on EKVX NSCLC and in the experiment with NCI-H226 lung was more than 100 µM throughout. Further, the TGI in the experiment on HCT-15 colon and in the experiment with ACHN renal was more than 100 µM each time.
On to `CC(C)(C)n1nc(C2CC2)cc1NC(=O)Nc1ccc(Cl)cc1`, for which the TGI in the experiment with LOX IMVI melanoma, with OVCAR-4 ovarian, in the experiment with U251 CNS, in the experiment on SNB-19 CNS, with EKVX NSCLC and in the experiment with NCI-H226 lung was more than 100 µM each time. Moreover, the TGI in the experiment with HCT-15 colon and in the experiment with ACHN renal was more than 100 µM throughout.
On to `Cc1cc(NCCCNc2ccnc3cc(Cl)ccc23)nc(Nc2ccc(C(=O)N3CCCCC3)cc2)n1`, for which the GI50 in the experiment on LOX IMVI melanoma is 1820 nM; with OVCAR-4 ovarian, 2830 nM; in the experiment with U251 CNS, 2250 nM; in the experiment on SNB-19 CNS, 3.55 µM; in the experiment on EKVX NSCLC, 3.65 µM; in the experiment with NCI-H226 lung it was 21800 nM. In addition, the GI50 in the experiment with HCT-15 colon was 2520 nM; in the experiment with ACHN renal it was 2850 nM. The TGI in the experiment on LOX IMVI melanoma is 3.57 µM; in the experiment on OVCAR-4 ovarian, 12.6 µM; in the experiment with U251 CNS, 4.92 µM; in the experiment on SNB-19 CNS, 12.5 µM; with EKVX NSCLC, 16 µM; in the experiment with NCI-H226 lung, 36.9 µM. For the same compound, the TGI came to 6.79 µM in the experiment with HCT-15 colon and 8.23 µM in the experiment on ACHN renal.
With `Nc1ncnc2c1ncn2C1OC(CO)CC1O` (stereo not drawn), the TGI with LOX IMVI melanoma was 70.8 µM; with OVCAR-4 ovarian, more than 100 µM; in the experiment with U251 CNS, more than 100 µM; with SNB-19 CNS, more than 100 µM; with EKVX NSCLC, more than 100 µM; with NCI-H226 lung it was more than 100 µM. Further, the TGI in the experiment on HCT-15 colon is 83.3 µM; with ACHN renal, more than 100 µM.
Regarding `COc1ccc(Nc2[nH]n(C3=Nc4ccccc4Sc4ccccc43)c(=O)c2C#N)cc1`, the GI50 with LOX IMVI melanoma is 1370 nM; in the experiment with OVCAR-4 ovarian, 803 nM; in the experiment with U251 CNS, 2500 nM; in the experiment with SNB-19 CNS, 3.53 µM; with EKVX NSCLC it was 0.781 µM; in the experiment with NCI-H226 lung it was 1480 nM. Further, the GI50 in the experiment on HCT-15 colon is 1870 nM; with ACHN renal it was 1150 nM. Moreover, the TGI is 4.27 µM with LOX IMVI melanoma; more than 100 µM in the experiment on OVCAR-4 ovarian; 43.3 µM with U251 CNS; more than 100 µM in the experiment with SNB-19 CNS; more than 100 µM with EKVX NSCLC; 9.81 µM in the experiment on NCI-H226 lung. For the same compound, the results for the TGI in the experiment with HCT-15 colon and in the experiment on ACHN renal were 34.1 µM and more than 100 µM, respectively.
Regarding `CCCCCCCCCCCCCCCCCc1cc(Cl)nc(Cl)n1`, the TGI in the experiment with LOX IMVI melanoma, in the experiment on OVCAR-4 ovarian, in the experiment on U251 CNS, with SNB-19 CNS, in the experiment with EKVX NSCLC and in the experiment on NCI-H226 lung was more than 100 µM throughout. Besides, the TGI in the experiment on HCT-15 colon and with ACHN renal was more than 100 µM throughout.
Consider `O=C(/C=C/c1ccccc1)Nc1ncc(Cc2ccccc2)s1`, for which the GI50 is 139 nM in the experiment with LOX IMVI melanoma; 1380 nM with OVCAR-4 ovarian; 271 nM in the experiment on U251 CNS; 0.392 µM with SNB-19 CNS; 0.44 µM with EKVX NSCLC; 1160 nM in the experiment with NCI-H226 lung. For the same compound, the GI50 in the experiment on HCT-15 colon is 66 nM; in the experiment with ACHN renal it was 400 nM. Besides, the TGI in the experiment with LOX IMVI melanoma is more than 23.2 µM; in the experiment on OVCAR-4 ovarian, 6.54 µM; in the experiment on U251 CNS, 6.25 µM; in the experiment with SNB-19 CNS, more than 52.3 µM; in the experiment with EKVX NSCLC, more than 100 µM; in the experiment on NCI-H226 lung it was more than 20.8 µM. Moreover, the figures for the TGI with HCT-15 colon and with ACHN renal were more than 100 µM and 31.4 µM, respectively.
For `COc1cc(/C=C/C(=O)c2ccc(F)cc2)ccc1OCCCCOc1cc2c(cc1OC)C(=O)N1CCCC1C=N2` (stereo not drawn), the GI50 was 472 nM in the experiment with LOX IMVI melanoma; 2990 nM with OVCAR-4 ovarian; 704 nM in the experiment on U251 CNS; 1.04 µM in the experiment with SNB-19 CNS; 4.05 µM in the experiment with EKVX NSCLC; 683 nM in the experiment with NCI-H226 lung. Besides, the GI50 in the experiment with HCT-15 colon and with ACHN renal was 1070 nM throughout. Besides, the TGI is 1.11 µM in the experiment with LOX IMVI melanoma; more than 23.9 µM in the experiment with OVCAR-4 ovarian; 7.85 µM in the experiment with U251 CNS; more than 19.9 µM with SNB-19 CNS; more than 34.9 µM with EKVX NSCLC; 1.7 µM in the experiment on NCI-H226 lung. The values for the TGI in the experiment with HCT-15 colon and in the experiment on ACHN renal were more than 28.2 µM and more than 20.5 µM, respectively.
Take `Oc1ccccc1/C=N/Nc1nc2ccccc2s1`: the GI50 in the experiment on LOX IMVI melanoma was 4300 nM; in the experiment with OVCAR-4 ovarian, 2310 nM; in the experiment with U251 CNS it was 8100 nM; in the experiment with SNB-19 CNS, 18.7 µM; in the experiment on EKVX NSCLC, 8.73 µM; with NCI-H226 lung, 10700 nM. Also, the GI50 in the experiment on HCT-15 colon was 2170 nM; with ACHN renal it was 6140 nM. In addition, the TGI in the experiment on LOX IMVI melanoma, with OVCAR-4 ovarian, in the experiment with U251 CNS, in the experiment with SNB-19 CNS, in the experiment with EKVX NSCLC and with NCI-H226 lung was more than 100 µM throughout. Besides, the TGI in the experiment on HCT-15 colon and in the experiment on ACHN renal was more than 100 µM throughout.

The values are drawn from PubChem BioAssay (NCI).
